Source: patent publication US9593109B2, “Bicyclic agonists of GPR131 and uses thereof” (CYMABAY THERAPEUTICS, INC., priority 2011, dated 2017)

Target: T1, human GPR131 (Homo sapiens, UniProt Q8TDU6)
T1 construct: expressed in transfected cells
T1 sequence (Q8TDU6 1-330): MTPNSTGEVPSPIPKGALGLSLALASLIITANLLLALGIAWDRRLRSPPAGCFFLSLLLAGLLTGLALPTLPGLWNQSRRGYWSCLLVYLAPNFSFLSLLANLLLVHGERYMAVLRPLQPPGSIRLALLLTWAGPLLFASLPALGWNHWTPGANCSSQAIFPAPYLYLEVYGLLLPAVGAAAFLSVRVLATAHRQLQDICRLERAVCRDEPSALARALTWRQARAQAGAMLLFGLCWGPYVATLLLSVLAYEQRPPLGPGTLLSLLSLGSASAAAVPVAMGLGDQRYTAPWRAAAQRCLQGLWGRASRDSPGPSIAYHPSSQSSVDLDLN
Assay: Stimulation of cAMP (agonism of GPR131), FRET cAMP assay
Type: cell-based
Conditions: 0.5 h; 1.1 μM compound; compared to maximal stimulatory activity of lithocholic acid (LCA) determined at 3.3 μM; stable cell line expressing human GPR131; 37° C. for 30 minutes; read-out: Percent Activity @ 1.1 μM (of 3.3 uM LCA) (%)
Experimental: This assay was developed using a stable cell line expressing human GPR131.
To measure cAMP activity in response to GPR131 agonists, GPR131 cells suspended in DMEM/F12 medium with 1 mM IBMX were seeded in 384 well plates at 5000 cells per well. After incubating with test compounds at 37° C. for 30 minutes cAMP was measured using a fluorescene resonance energy transfer cAMP kit from Cis Bio (Bedford, Mass.) according to the manufacturer's instructions. Briefly, cells were lysed, and cAMP levels determined by competitive immunoassay using D2 labeled cAMP, and europium cryptate tagged anti cAMP antibody. Decreases in the FRET signal (fluorescence ratio (665 nm/620 […]) correspond to increases in intracellular cAMP levels.
Activities of test compounds in Table 1 below are expressed as percent activity at 1.1 μM compound compared to the maximal stimulatory activity of lithocholic acid (LCA) (determined at 3.3 μM LCA).

| SMILES | activation at 1.1 µM [%] |
| --- | --- |
| Cn1ncc2c(-n3cnnc3-c3c(-c4cc(Cl)ccc4Cl)nc4ccccn34)cccc21 [Compound 545, 4-(3-(2-(2,5-Dichlorophenyl)imidazo[1,2-a]pyridin-3-yl)-4H-1,2,4-triazol-4-yl)-1-methyl-1H-indazole] | 90.9 |
| Clc1ccc(-n2nnnc2-c2c(-c3cc(Cl)ccc3Cl)nc3occn23)cc1 [Compound 551, 5-(1-(4-Chlorophenyl)-1H-tetrazol-5-yl)-6-(2,5-dichlorophenyl)imidazo[2,1-b]oxazole] | 95.7 |
| Clc1ccc(-n2nnnc2-c2c(-c3cc(Cl)ccc3Cl)nc3ccccn23)cc1 [Compound 552, 3-(1-(4-Chlorophenyl)-1H-tetrazol-5-yl)-2-(2,5-dichlorophenyl)imidazo[1,2-a]pyridine] | 100 |
| Clc1ccc(-n2cnnc2-c2c(-c3cc(Cl)ccc3Cl)nc3ccccn23)cc1 [Compound 553, 3-(4-(4-Chlorophenyl)-4H-1,2,4-triazol-3-yl)-2-(2,5-dichlorophenyl)imidazo[1,2-a]pyridine] | 99.9 |
| Clc1ccc(-n2ncnc2-c2c(-c3cc(Cl)ccc3Cl)nc3ccccn23)cc1 [Compound 554, 3-(1-(4-Chlorophenyl)-1H-1,2,4-triazol-5-yl)-2-(2,5-dichlorophenyl)imidazo[1,2-a]pyridine] | 99.9 |
| Clc1ccc(-n2nnnc2-c2c(-c3cc(Cl)ccc3Cl)nc3cccnn23)cc1 [Compound 555, 3-(1-(4-Chlorophenyl)-1H-tetrazol-5-yl)-2-(2,5-dichlorophenyl)imidazo[1,2-b]pyridazine] | 100 |
| Clc1ccc(-n2nnnc2-c2c(-c3cc(Cl)ccc3Cl)nc3cnccn23)cc1 [Compound 556, 3-(1-(4-Chlorophenyl)-1H-tetrazol-5-yl)-2-(2,5-dichlorophenyl)imidazo[1,2-a]pyrazine] | 88.4 |
| Clc1ccc(-n2ccnc2-c2c(-c3ccccc3Cl)nc3ccccn23)cc1 [Compound 557, 2-(2-Chlorophenyl)-3-(1-(4-chlorophenyl)-1H-imidazol-2-yl)imidazo[1,2-a]pyridine] | 99.7 |
| Clc1ccc(-n2nnnc2-c2c(-c3cc(Cl)ccc3Cl)nc3n2CCCC3)cc1 [Compound 559, 3-(1-(4-Chlorophenyl)-1H-tetrazol-5-yl)-2-(2,5-dichlorophenyl)-5,6,7,8-tetrahydroimidazo[1,2-a]pyridine] | 94.6 |
| Clc1ccc(-n2ccnc2-c2c(-c3cc(Cl)ccc3Cl)nc3n2CCCC3)cc1 [Compound 560, 3-(1-(4-Chlorophenyl)-1H-imidazol-2-yl)-2-(2,5-dichlorophenyl)-5,6,7,8-tetrahydroimidazo[1,2-a]pyridine] | 100 |
| Clc1ccc(-n2ccnc2-c2c(-c3cc(Cl)ccc3Cl)nc3cccnn23)cc1 [Compound 561, 3-(1-(4-Chlorophenyl)-1H-imidazol-2-yl)-2-(2,5-dichlorophenyl)imidazo[1,2-b]pyridazine] | 100 |
| FC(F)(F)c1ccc(-n2nnnc2-c2c(-c3cc(Cl)ccc3Cl)nc3ccccn23)cc1 [Compound 562, 2-(2,5-Dichlorophenyl)-3-(1-(4-(trifluoromethyl)phenyl)-1H-tetrazol-5-yl)imidazo[1,2-a]pyridine] | 97.9 |
| FC(F)(F)c1ccc(-n2nnnc2-c2c(-c3cc(Cl)ccc3Cl)nc3cccnn23)cc1 [Compound 563, 2-(2,5-Dichlorophenyl)-3-(1-(4-(trifluoromethyl)phenyl)-1H-tetrazol-5-yl)imidazo[1,2-b]pyridazine] | 99.5 |
| FC(F)(F)c1ccc(-n2ccnc2-c2c(-c3cc(Cl)ccc3Cl)nc3ccccn23)cc1 [Compound 564, 2-(2,5-Dichlorophenyl)-3-(1-(4-(trifluoromethyl)phenyl)-1H-imidazol-2-yl)imidazo[1,2-a]pyridine] | 100 |
| FC(F)(F)c1ccc(-n2ccnc2-c2c(-c3cc(Cl)ccc3Cl)nc3cccnn23)cc1 [Compound 565, 2-(2,5-Dichlorophenyl)-3-(1-(4-(trifluoromethyl)phenyl)-1H-imidazol-2-yl)imidazo[1,2-b]pyridazine] | 100 |
| N#Cc1ccc(-n2nnnc2-c2c(-c3cc(Cl)ccc3Cl)nc3ccccn23)cc1 [Compound 566, 4-(5-(2-(2,5-Dichlorophenyl)imidazo[1,2-a]pyridin-3-yl)-1H-tetrazol-1-yl)benzonitrile] | 99.7 |
| N#Cc1ccc(-n2ccnc2-c2c(-c3cc(Cl)ccc3Cl)nc3ccccn23)cc1 [Compound 567, 4-(2-(2-(2,5-Dichlorophenyl)imidazo[1,2-a]pyridin-3-yl)-1H-imidazol-1-yl)benzonitrile] | 99.9 |
| Clc1cccc(-c2nc3ccccn3c2-c2nncn2-c2ccc3cn[nH]c3c2)c1 [Compound 568, 6-(3-(2-(3-Chlorophenyl)imidazo[1,2-a]pyridin-3-yl)-4H-1,2,4-triazol-4-yl)-1H-indazole] | 96 |
